# Results from patent US8853194B2, “Sterol derivatives and their synthesis and use” (priority 2009, dated 2014).
# Values joined by “and” are separate entries in the source; they are usually repeats but may differ in a detail not shown here. Equal values may be shown once. Read-outs that look alike come from different tables or passages of the source. Marks after values point to notes of the source that are not given here.
# Tests used:
# P53 = conditions: tumor tissue, ratio to β-actin, n=3
# Procedure: (§1) 3. Detecting the activity of tumor cells VEGF, P53, P21, Bcl-2 (taking β-Actin as an internal reference)
# (§2) Using Protein Electrophoresis (Western Blot) Method
# (§3) A bean sized tumor tissue dissected previously was shredded and put into a pre-cooled tissue grinder. 400 μl tissue lysis solution was added. After 10 minutes carefully grinding, the mixture was transferred into a 1.5 ml centrifugal tube, and then, after intensely vortexing the tube for 15 seconds, the mixture was placed on ice for 10 minutes and repeatedly oscillated. After centrifuging 20 minutes (12000 rpm), the supernatant was collected, transferred into a pre-cooled Eppendorf tube, and then separately charged and frozen stored at −80° C. for detecting the activity level of various antibodies.
# (§4) 3.4.3 Reaction with the first antibody: The first antibody was diluted by TBST solution at a ratio of 1:200, and then reacted with the PVDF film at 4° C. for a night. In the next day, after balanced at room temperature for one hour, the reaction mixture was washed with TBST for 3 times.
# P21 = conditions: tumor tissue, ratio to β-actin, n=3
# Procedure: as §1, §2, §3, §4
# VEGF [1] = conditions: tumor tissue, ratio to β-actin, n=3
# Procedure: as §1, §2, §3, §4
# VEGF [2] = conditions: 16 mg/kg (low dose group), OD at 450 nm
# Procedure: Before taking tumors out, blood was collected by eye bleeding from mice in the four groups, i.e. the negative control group, the positive CTX control group, the high dose (32 mg/kg) group and the low dose (16 mg/kg) group.
# 1.1 Preparing reagents, samples and standards;
# 1.2 Adding the prepared samples and standards, and reacting for 90 minutes at 37° C.;
# 1.3 Washing the plate twice, adding biotinylated antibody working solution, and reacting for 60 minutes at 37° C.;
# 1.4 Washing the plate for three times, adding ABC working solution, and reacting for 30 minutes at 37° C.;
# 1.5 Washing the plate for five times, adding TMB color liquid, and reacting in dark for 15 minutes at 37° C.;
# 1.6 Adding TMB stop solution, and measuring OD value at 450 nm.
# [3] = test system: human hepatoma cell HepG2
# Procedure: (§5) The human hepatoma cells HepG2, human lung cancer cells A549 and NIH3T3 cells were recovered, and subcultured in culture flasks. Once the cells grew to the logarithmic phase, the experiment can be started. The cells were digested by high-pressure filtered trypsin to prepare a cell-containing suspension, dyed for 3 minutes with 0.4% trypan blue, and then counted with the blood-cell counter (living cells were not colored, while dead cells were stained blue).
# (§6) The three types of cells in logarithmic phase were seeded in 96-well plates with a density of 1×10^4/ml (200 μL/well), and then cultivated for 24 hours at 37° C. in 5% CO2 cultivable box. The culture media was aspirated and discarded. […] After cultivating for 24 hours and 48 hours, 100 ul supernatant was carefully aspirated and discarded, respectively. MTS (20 μl/well) was added and mixed evenly. The mixture was cultivated for 1 hour at 37° C. in 5% CO2 cultivable box. The absorbency at 492 nm was determined by quantitative Enzyme-linked immunosorbent assay (ELISA). The experiment was repeated for three times. The growth inhibition rate was calculated as follows. Growth Inhibition rate(%)=[(mean OD value of control group−mean OD value of treatment group)/mean OD value of control group]×100%
# [4] = test system: human immortalized fibroblast cell NIH3T3
# Procedure: as §5, §6
# [5] = test system: human lung cancer cell A549
# Procedure: as §5, §6
# CAM vessels = assay: CAM assay, effect on tumor angiogenesis; assay type: in vivo, German Roman embryonated eggs; conditions: 72 hours incubation
# Procedure: A sterile gelatin sponge, previously made into disks with diameter of 5 mm by a hole puncher, was used as sample carrier. […] There were 3 dose groups, wherein 5 μl (low dose group, with a dose volume of 2 μg/embryo), 10 μl (middle dose group, with a dose volume of 4 μg/embryo), and 20 μl (high dose group, with a dose volume of 8 μg/embryo) of the solution were added respectively into gelatin sponge slices by a quantitative liquid transfer. The sponge slices were dried in the sterile environment.
# A sterilized egg was placed into a 37° C. incubator with its air chamber upward. In the 7th day, the embryo was positioned on a super-clean bench and sterilized by ethanol, and then it was drilled by a dental drill to form a little hole in the top of the embryo. Egg shell and shell membrane around the hole were carefully removed to form an opening of about 1.2 cm×1.2 cm; after determining a sample-adding site, the air chamber membrane was carefully pricked at the separation place between the chamber and the yolk by a syringe needle; through the prick hole 1-2 drops of sterilized water was injected, which made the chamber membrane and the CAM membrane be separated; after gently removing the upper layer of the chamber membrane with forceps, the CAM membrane in the lower layer was exposed.
# A drug-containing carrier was placed, at the junction area of the CAM membrane and the yolk sac membrane, on a site where vessels were less, and then sealed with sterilized transparent adhesive tape to continue to incubate for 72 hours.
# After the incubation, the transparent adhesive tape stopped on the top of the air chamber was gently removed by forceps; a mixture of methanol/acetone (1:1, 1-2 ml) was gently added; the room temperature was remained constant for 10 minutes. Then, the CAM membrane was carefully peeled off and placed on a glass slide for observing and taking photos. The effect of the compound on angiogenesis was assessed by counting the numbers of large, middle, small blood vessels radiated by the carrier.
structure (smiles),measurement,setting,value
"CC(C)CCC[C@@H](C)[C@H]1CC[C@@H]2[C@]1(C)CC[C@H]1[C@]23C=C[C@]2(CC(=O)CC[C@]12C)OO3 [CL168-6, 5α,8α-cyclicobioxygen-6-cholesten-3-one]",relative expression level of P53,P53,0.74±0.03
same,relative expression level of P21,P21,0.79±0.07
same,relative expression level of VEGF,VEGF [1],0.46±0.08
same,OD value of serum VEGF,VEGF [2],0.2064 ± 0.0114^□
same,24 h Inhibition rate (%) HepG2,[3]; 2.5 μg/ml,52.85%
same,48 h Inhibition rate (%) HepG2,[3]; 2.5 μg/ml,59.83%
same,24 h Inhibition rate (%) HepG2,[3]; 5.0 μg/ml,58.51* %
same,48 h Inhibition rate (%) HepG2,[3]; 5.0 μg/ml,69.08* %
same,24 h Inhibition rate (%) HepG2,[3]; 10.0 μg/ml,64.39%
same,48 h Inhibition rate (%) HepG2,[3]; 10.0 μg/ml,73.67%
same,24 h Inhibition rate (%) NIH3T3,[4]; 2.5 μg/ml,3.87%
same,48 h Inhibition rate (%) NIH3T3,[4]; 2.5 μg/ml,0.75%
same,24 h Inhibition rate (%) NIH3T3,[4]; 5.0 μg/ml,5.69%
same,48 h Inhibition rate (%) NIH3T3,[4]; 5.0 μg/ml,1.97%
same,24 h Inhibition rate (%) NIH3T3,[4]; 10.0 μg/ml,8.45%
same,48 h Inhibition rate (%) NIH3T3,[4]; 10.0 μg/ml,5.37%
same,24 h Inhibition rate (%) A549,[5]; 2.5 μg/ml,48.69%
same,48 h Inhibition rate (%) A549,[5]; 2.5 μg/ml,51.91%
same,24 h Inhibition rate (%) A549,[5]; 5.0 μg/ml,55.78* %
same,48 h Inhibition rate (%) A549,[5]; 5.0 μg/ml,59.75* %
same,24 h Inhibition rate (%) A549,[5]; 10.0 μg/ml,62.40%
same,48 h Inhibition rate (%) A549,[5]; 10.0 μg/ml,69.67% and 69.37* %
same,Large vessels (number of the vessels),CAM vessels; 2 ug/embryo,3.5 ± 1.8
same,Middle vessels (number of the vessels),CAM vessels; 2 ug/embryo,13.2 ± 3.7
same,Small vessels (number of the vessels),CAM vessels; 2 ug/embryo,8.8 ± 2.3
same,Large vessels (number of the vessels),CAM vessels; 4 ug/embryo,3.6 ± 1.9
same,Middle vessels (number of the vessels),CAM vessels; 4 ug/embryo,11.2 ± 3.2
same,Small vessels (number of the vessels),CAM vessels; 4 ug/embryo,6.5 ± 2.5
same,Large vessels (number of the vessels),CAM vessels; 8 ug/embryo,2.5 ± 2.0
same,Middle vessels (number of the vessels),CAM vessels; 8 ug/embryo,12.6 ± 5.6
same,Small vessels (number of the vessels),CAM vessels; 8 ug/embryo,4.0 ± 2.8
